{"source": "patent US20260232660A1", "about": "(TARIS Biomedical LLC, priority 2023, published 2026)", "key": {"[1]": {"tested_on": "orthotopic RT-112 bladder tumor"}, "[2]": {"tested_on": "orthotopic UM-UC-1 bladder tumors", "test": "Continuous bladder perfusion, orthotopic UM-UC-1 bladder cancer model", "format": "in vivo", "settings": "5 days perfusion; p<0.01 at 0.5, p<0.001 at 1.0 and 5 μg/mL nominal urine concentrations", "description": "Perfusion studies: The bladders of the study animals were cannulated on Day 1 and the animals were allowed to recover for 3 days. On Day 5, UM-UC-1 cells (2×10^6 cells) were injected into the lateral wall of each bladder. […] Based on the in vitro results, target urine concentrations of 0.5, 1.0, and 5.0 μg/mL were used in the perfusion experiments. Body weight, daily urine production, and daily water consumption were recorded. At necropsy, a plasma sample, bladder photographs, and bladder weight measurements were recorded.\nThe percent reduction in relative tumor weight between the control group and the drug perfusion groups was determined as an initial measure of efficacy."}, "[3]": {"settings": "first 6 hours", "experimental": "Solution formulations were prepared at various strengths in order to administer 0.5 mL volume to each rat bladder to dose 2, 6, and 18 mg/kg. Corresponding doses in nominal amount of drug were 0.5, 1.5, and 4.5 mg, respectively. After 1 hour of post-installation, rats were transferred to metabolic cages for collection of samples for PK determination. […] At each blood sampling time point, bladder samples were taken from each rat for drug analysis. In addition, bladders collected at 96 hours in the 18 mg/kg dose (high-dose) group were microscopically evaluated. Urine collections were limited to initial 0-6 hours post dose from all rats."}, "in vivo": {"test": "in vivo", "settings": "female, Domestic Yorkshire Crossbred, pig, urine, other: continuous intravesical infusion, 0.22 mg/kg/day", "quoted_text": "On Day ~7 a catheter was surgically placed in the bladder of each animal. The distal end of the catheter was anchored to a subcutaneous site and attached to a vascular access port (VAP). The port was secured, and the animals were allowed to recover. Each animal was subsequently fitted with a portable infusion pump that was attached to the bladder catheter via the VAP. […] All excreted urine was collected in 24-hour intervals through Day 6 or 8. Blood samples were collected daily on study Days 1 to 8. Bladder tissue samples were collected from each animal at necropsy."}, "[4]": {"settings": "rat, in vivo", "text": "Rat bladders (5 groups of rats, n=3/group) were surgically catheterized under anesthesia and the catheter was externalized, tunneled subcutaneously, and connected to a vascular access harness (VAH) in the neck. Rats were transferred to individual metabolic cages with free access to food and water during the 1-week post-surgery recovery period. […] Plasma and bladder samples were collected at all time points."}}, "note": "Where two headings read alike, the source gives them in different places. Marks after values point to notes of the source that are not given here.", "data": [{"smiles": "COc1cc(OC)cc(N(CCNC(C)C)c2ccc3ncc(-c4cnn(C)c4)nc3c2)c1", "note": "[erdafitinib, N-(3,5-dimethoxyphenyl)-N′-(1-methylethyl)-N-[3-(1-methyl-1H-pyrazol-4-yl)quinoxalin-6-yl]ethane-1,2-diamine]", "values": [{"measurement": "Bladder weight decrease vs vehicle control", "setting": "[1]; 1.0 μg/mL perfusate concentration, p<0.05", "value": "significant bladder weight reduction"}, {"measurement": "Body weight loss, maximum mean value", "setting": "[1]; erdafitinib-treated group, Day 11", "value": "up to −3%"}, {"measurement": "Bladder weight (tumor growth) vs vehicle control", "setting": "[2]", "value": "significant dose-related decrease in bladder weight"}, {"measurement": "Percentage of compound eliminated as unchanged drug in the urine", "setting": "[3]; 2 mg/kg intravesical", "value": 23.5, "unit": "%"}, {"measurement": "Percentage of compound eliminated as unchanged drug in the urine", "setting": "[3]; 6 mg/kg intravesical", "value": 19, "unit": "%"}, {"measurement": "Percentage of compound eliminated as unchanged drug in the urine", "setting": "[3]; 18 mg/kg intravesical", "value": 50.3, "unit": "%"}, {"measurement": "concentration at 8 day", "setting": "in vivo", "value": 1270, "unit": "ng/mL"}, {"measurement": "C72 h", "setting": "[4]; female, Sprague-Dawley, 72 h", "value": "2,420^a ng/mL"}, {"measurement": "C96 h", "setting": "[4]", "value": "BQL"}, {"measurement": "C120 h", "setting": "[4]", "value": "BQL"}]}]}
